Converted amounts (≈) assume the structure as drawn.
Experiments:
[1] = Cytotoxicity against mock-infected MT-4 cells (MTT); type: cell-based, human; settings: human, concentration reducing viability of mock-infected MT-4 cells by 50%
Procedure: (§1) Cell line supporting the multiplication of Human Immunodeficiency Virus type-1 (HIV-1) was the CD4+ human T-cells, derived from human hematological tumors, containing an integrated HTLV-1 genome (MT-4). Cells were purchased from American Type Culture Collection (ATCC). Human Immunodeficiency Virus type-1 (HIV-1) IIIB laboratory strain was obtained from the supernatant of the persistently infected H9/IIIB cells (NIH 1983).
Exponentially growing MT-4 cells were seeded at an initial density of 1 × 10^5 cells/mL in 96-well plates in RPMI-1640 medium, supplemented with 10% fetal bovine serum (FBS), 100 units/mL penicillin G and 100 μg/mL streptomycin. Cell cultures were then incubated at 37 °C in a humidified, 5% CO2 atmosphere, in the absence or presence of serial dilutions of tested compounds. Cell viability was determined after 96 h at 37 °C by the 3-(4,5-dimethylthiazol-2-yl)-2,5-diphenyl-tetrazolium bromide (MTT) method.

[2] = system: HIV-1 IIIB; test: Anti-HIV-1 activity: protection of MT-4 cells from virus-induced cytopathogenicity (MTT); type: cell-based, Human Immunodeficiency Virus type-1; settings: Human immunodeficiency virus 1, IIIB, MT4, 96 h; 50% protection of MT-4 cells from HIV-1 induced cytopathogenicity, MTT, 4-day incubation; read-out: HIV-1IIIB EC50
Text: as §1
The activity of compounds against HIV-1 was based on inhibition of virus-induced cytopathogenicity in MT-4 cell acutely infected with a multiplicity of infection (m.o.i.) of 0.01. Briefly, 50 μL of RPMI containing 1 × 10^4 MT-4 cells were added to each well of flat-bottom microtiter trays, containing 50 μL of RPMI without or with serial dilutions of test compounds. Then, 20 μL of a HIV-1 suspension containing 100 CCID50 were added. After a 4-day incubation at 37 °C, cell viability was determined by the MTT method.

[3] = system: standard strains; test: Antimicrobial activity against set of bacterial and fungal strains; type: cell-based; settings: for MIC: range over standard strains
Procedure: (§2) The antimicrobial activity of the compounds was tested on Gram-positive bacteria (Staphylococcus aureus NCTC 4163, Staphylococcus aureus ATCC 25923, Staphylococcus aureus ATCC 6538, Staphylococcus aureus ATCC 29213, Staphylococcus epidermidis ATCC 12228, Staphylococcus epidermidis ATCC 35984, Enterococcus faecalis ATCC 29212, Bacillus subtilis ATCC 6633, Bacillus cereus ATCC 11778, Micrococcus luteus ATCC 9341, Micrococcus luteus ATCC 10240); Gram-negative rods (Escherichia coli ATCC 10538, Escherichia coli ATCC 25922, Escherichia coli NCTC 8196, Proteus vulgaris NCTC 4635, Pseudomonas aeruginosa ATCC 15442, Pseudomonas aeruginosa NCTC 6749, Pseudomonas aeruginosa ATCC 27863, Bordetella bronchiseptica ATCC 4617) and yeasts (Candida albicans ATCC 10231, Candida albicans ATCC 90028, Candida parapsilosis ATCC 22019). Other microorganisms used were obtained from the collection of the Department of Pharmaceutical Microbiology, Medical University of Warsaw, Poland.
Antibacterial activity was examined by the disc-diffusion method under standard conditions using Mueller-Hinton II agar medium (Becton Dickinson) according to CLSI (previously NCCLS) guidelines. Antifungal activities were assessed using Mueller-Hinton agar + 2% glucose and 0.5 µg/mL Methylene Blue Dye Medium. Sterile filter paper discs (9 mm diameter, Whatman No 3 chromatography paper) were dripped with tested compound solutions (in DMSO) to load 400 μg of a given compound per disc. Dry discs were placed on the surface of appropriate agar medium. The results (diameter of the growth inhibition zone) were read after 18 h of incubation at 35 °C. Minimal Inhibitory Concentration (MIC) was tested by the twofold serial microdilution method (in 96-well microtiter plates) using Mueller-Hinton Broth medium (Beckton Dickinson) for bacteria or RPMI-1640 medium for Candida species according to CLSI guidelines. […] Minimal inhibitory concentrations (the lowest concentration of a tested agent that prevents visible growth of a microorganism) were read after 18 h (bacteria) or 24 h (yeasts) of incubation at 35 °C.

[4] = system: B. cereus ATCC 11778; test: MIC, twofold serial microdilution; type: cell-based; settings: Bacillus cereus, ATCC11778; standard strain, 18 h, 35 °C
Procedure: as §2
(§3) Antibacterial activity was examined by the disc-diffusion method under standard conditions using Mueller-Hinton II agar medium (Becton Dickinson) according to CLSI (previously NCCLS) guidelines. Antifungal activities were assessed using Mueller-Hinton agar + 2% glucose and 0.5 µg/mL Methylene Blue Dye Medium. Sterile filter paper discs (9 mm diameter, Whatman No 3 chromatography paper) were dripped with tested compound solutions (in DMSO) to load 400 μg of a given compound per disc. Dry discs were placed on the surface of appropriate agar medium. The results (diameter of the growth inhibition zone) were read after 18 h of incubation at 35 °C. Minimal Inhibitory Concentration (MIC) was tested by the twofold serial microdilution method (in 96-well microtiter plates) using Mueller-Hinton Broth medium (Beckton Dickinson) for bacteria or RPMI-1640 medium for Candida species according to CLSI guidelines. The stock solution of tested agent was prepared in DMSO and diluted in sterile water. Concentrations of tested agents ranged from 0.125 to 512 µg/mL. The final inoculum of all studied microorganisms was 10^5 CFU/ mL^−1 (colony forming units per mL). Minimal inhibitory concentrations (the lowest concentration of a tested agent that prevents visible growth of a microorganism) were read after 18 h (bacteria) or 24 h (yeasts) of incubation at 35 °C.

[5] = system: B. subtilis ATCC 6633; test: MIC, twofold serial microdilution; type: cell-based; settings: Bacillus subtilis, ATCC6633; standard strain, 18 h, 35 °C
Procedure: as §2, §3

[6] = system: M. luteus ATCC 10240; test: MIC, twofold serial microdilution; type: cell-based; settings: Micrococcus luteus, ATCC10240; standard strain, 18 h, 35 °C
Procedure: as §2, §3

[7] = system: M. luteus ATCC 9341; test: MIC, twofold serial microdilution; type: cell-based; settings: Micrococcus luteus, ATCC9341; standard strain, 18 h, 35 °C
Procedure: as §2, §3

[8] = system: S. aureus ATCC 25923; test: MIC, twofold serial microdilution; type: cell-based; settings: Staphylococcus aureus, ATCC25923; standard strain, 18 h, 35 °C
Procedure: as §2, §3

[9] = system: S. aureus ATCC 29213; test: MIC, twofold serial microdilution; type: cell-based; settings: Staphylococcus aureus, ATCC29213; standard strain, 18 h, 35 °C
Procedure: as §2, §3

[10] = system: S. aureus ATCC 6538; test: MIC, twofold serial microdilution; type: cell-based; settings: Staphylococcus aureus, ATCC6538; standard strain, 18 h, 35 °C
Procedure: as §2, §3

[11] = system: S. aureus NCTC 4163; test: MIC, twofold serial microdilution; type: cell-based; settings: Staphylococcus aureus, NCTC4163; standard strain, 18 h, 35 °C
Procedure: as §2, §3

[12] = system: S. epidermidis ATCC 12228; test: MIC, twofold serial microdilution; type: cell-based; settings: Staphylococcus epidermidis, ATCC12228; standard strain, 18 h, 35 °C
Procedure: as §2, §3

[13] = system: S. epidermidis ATCC 35984; test: MIC, twofold serial microdilution; type: cell-based; settings: Staphylococcus epidermidis, ATCC35984; standard strain, 18 h, 35 °C
Procedure: as §2, §3

[14] = system: S. epidermidis MRSE 403/11; test: MIC, hospital methicillin-resistant strain; type: cell-based; settings: Staphylococcus epidermidis
Procedure: as §2, §3

[15] = system: S. epidermidis MRSE 404/11; test: MIC, hospital methicillin-resistant strain; type: cell-based; settings: Staphylococcus epidermidis
Procedure: as §2, §3

[16] = system: S. epidermidis MRSE 405/11; test: MIC, hospital methicillin-resistant strain; type: cell-based; settings: Staphylococcus epidermidis
Procedure: as §2, §3

[17] = system: S. epidermidis MRSE 406/11; test: MIC, hospital methicillin-resistant strain; type: cell-based; settings: Staphylococcus epidermidis
Procedure: as §2, §3

[18] = system: S. epidermidis MRSE 407/11; test: MIC, hospital methicillin-resistant strain; type: cell-based; settings: Staphylococcus epidermidis
Procedure: as §2, §3

[19] = system: S. epidermidis MRSE 409/11; test: MIC, hospital methicillin-resistant strain; type: cell-based; settings: Staphylococcus epidermidis
Procedure: as §2, §3

[20] = system: S. epidermidis MRSE 411/11; test: MIC, hospital methicillin-resistant strain; type: cell-based; settings: Staphylococcus epidermidis
Procedure: as §2, §3

[21] = system: S. epidermidis MRSE 412/11; test: MIC, hospital methicillin-resistant strain; type: cell-based; settings: Staphylococcus epidermidis
Procedure: as §2, §3

[22] = system: S. epidermidis MRSE 413/11; test: MIC, hospital methicillin-resistant strain; type: cell-based; settings: Staphylococcus epidermidis
Procedure: as §2, §3

[23] = system: S. epidermidis MRSE 422/11; test: MIC, hospital methicillin-resistant strain; type: cell-based; settings: Staphylococcus epidermidis
Procedure: as §2, §3

[24] = system: E. faecalis ATCC 29212; test: MIC, twofold serial microdilution; type: cell-based; settings: Enterococcus faecalis, ATCC29212; standard strain, 18 h, 35 °C
Procedure: as §2, §3

[25] = system: staphylococci; test: MIC against staphylococci; type: cell-based; settings: moderate activity
Procedure: as §2, §3

EC50 [2] [µM] | melting point [°C] | MIC [4] [µg/mL] | MIC [5] [µg/mL] | MIC [6] [µg/mL] | MIC [7] [µg/mL] | MIC [8] [µg/mL] | MIC [9] [µg/mL] | MIC [10] [µg/mL] | MIC [11] [µg/mL] | MIC [12] [µg/mL] | MIC [13] [µg/mL] | MIC [14] [µg/mL] | MIC [15] [µg/mL] | MIC [16] [µg/mL] | MIC [17] [µg/mL] | MIC [18] [µg/mL] | MIC [19] [µg/mL] | MIC [20] [µg/mL] | SMILES | CC50 at 96 h [1] [µM] | further results
> 35 | 149 to 150.5 | – | – | – | – | – | – | – | – | – | – | – | – | – | – | – | – | – | COc1ccc(NC(=S)Nc2ccc(Cl)c([N+](=O)[O-])c2)cc1 [Compound 21, 1-(4-chloro-3-nitrophenyl)-3-(4-methoxyphenyl)thiourea] | 35 | activity against tested microorganisms [3]: devoid of activity
> 18.7 | 67 to 69 | 4 (≈ 10.6 µM) | 4 (≈ 10.6 µM) | 2 (≈ 5.29 µM) | 4 (≈ 10.6 µM) | 2 (≈ 5.29 µM) | 2 (≈ 5.29 µM) | 2 (≈ 5.29 µM) | 4 (≈ 10.6 µM) | 4 (≈ 10.6 µM) | 4 (≈ 10.6 µM) | 4 (≈ 10.6 µM) | 8 (≈ 21.2 µM) | 4 (≈ 10.6 µM) | 8 (≈ 21.2 µM) | 4 (≈ 10.6 µM) | 4 (≈ 10.6 µM) | 4 (≈ 10.6 µM) | CCCCc1ccc(NC(=S)Nc2ccc(Cl)c([N+](=O)[O-])c2)c(C)c1 [Compound 22, 1-(4-butyl-2-methylphenyl)-3-(4-chloro-3-nitrophenyl)thiourea] | 18.7 | MIC [21]: 8 µg/mL (≈ 21.2 µM); MIC [22]: 8 µg/mL (≈ 21.2 µM); MIC [23]: 8 µg/mL (≈ 21.2 µM); MIC [3]: 2 to 4 µg/mL (≈ 5.29 to 10.6 µM)
> 23 | 163 to 165 | 8 (≈ 26 µM) | 8 (≈ 26 µM) | 8 (≈ 26 µM) | 4 (≈ 13 µM) | 16 (≈ 52 µM) | 16 (≈ 52 µM) | 16 (≈ 52 µM) | 16 (≈ 52 µM) | 16 (≈ 52 µM) | 16 (≈ 52 µM) | 16 (≈ 52 µM) | 16 (≈ 52 µM) | 16 (≈ 52 µM) | 16 (≈ 52 µM) | 16 (≈ 52 µM) | 16 (≈ 52 µM) | 16 (≈ 52 µM) | O=[N+]([O-])c1cc(NC(=S)Nc2ccccc2)ccc1Cl [Compound 23, 1-(4-chloro-3-nitrophenyl)-3-phenylthiourea] | 23 | MIC [24]: 16 µg/mL (≈ 52 µM); MIC [21]: 32 µg/mL (≈ 104 µM); MIC [22]: 16 µg/mL (≈ 52 µM); MIC [23]: 16 µg/mL (≈ 52 µM); MIC range towards staphylococci [25]: 8 to 16 µg/mL
> 14.6 | 156 to 158 | 4 (≈ 12.4 µM) | 4 (≈ 12.4 µM) | 4 (≈ 12.4 µM) | 4 (≈ 12.4 µM) | 2 (≈ 6.22 µM) | 2 (≈ 6.22 µM) | 4 (≈ 12.4 µM) | 2 (≈ 6.22 µM) | 4 (≈ 12.4 µM) | 4 (≈ 12.4 µM) | 16 (≈ 49.7 µM) | 16 (≈ 49.7 µM) | 16 (≈ 49.7 µM) | 16 (≈ 49.7 µM) | 16 (≈ 49.7 µM) | 16 (≈ 49.7 µM) | 16 (≈ 49.7 µM) | Cc1ccc(NC(=S)Nc2ccc(Cl)c([N+](=O)[O-])c2)cc1 [Compound 20, 1-(4-chloro-3-nitrophenyl)-3-(4-methylphenyl)thiourea] | 14.6 | MIC [21]: 32 µg/mL (≈ 99.4 µM); MIC [22]: 16 µg/mL (≈ 49.7 µM); MIC [23]: 32 µg/mL (≈ 99.4 µM); MIC [3]: 2 to 4 µg/mL (≈ 6.22 to 12.4 µM)

Source: PMC6222614, “Disubstituted 4-Chloro-3-nitrophenylthiourea Derivatives: Antimicrobial and Cytotoxic Studies” (Molecules : A Journal of Synthetic Chemistry and Natural …, 2018)
